SMILES strings stand for the structures. In brackets after ≈: the same amount, converted by molar mass. Read-outs that look alike come from different tables or passages of the source.

The text below walks through data of US8410139B2, “Prodrugs of a piperidinyl derivative as modulators of chemokine receptor activity” (Bristol-Myers Squibb Company, priority 2009, dated 2013).

Data set [1] can be described thus: Thermodynamic equilibrium aqueous solubility assay. To be noted: aqueous solvent, thermodynamic from solid, read-out: Aq. sol., mg/mL (pH). Type of data set: physicochemical. Here is the method:
Thermodynamic Equilibrium Aqueous Solubility Assay
The calibration standard is prepared by accurately weighing 0.5-0.7 mg of sample in 5 ml of methanol. If the material is not fully soluble in methanol, other solvents such as DMSO or mixed solvents will be used.
*The calibration standard is typically prepared fresh immediately before the start of the assay. A two-point calibration curve should be used to determine the concentration of the final solution. A serial dilution is performed on the standard solution.
The final saturated solution is prepared by adding 1.0 ml of the appropriate aqueous solvent to the remaining portion of material (˜1 mg/l ml) into a 1 dram vial. The solution is sonicated and vortexed for ˜30 seconds. The sample solution is placed on an orbiter that continually agitates the sample solutions for 15-24 hours at room temperature. The final saturated solution is then transferred to a 1.5 ml Eppendorf tube and centrifuged for ˜2 min. at 10000 rpms. The supernatant from the saturated solution is transferred to a glass HPLC vial without filtering since the 1.5 mL volume is insufficient to saturate a syringe filter. This sample preparation procedure nullifies the effects of non-specific binding to the filtering apparatus.
The standards and sample are analyzed by HPLC using either UV/Vis diode array or variable wavelength detection. Typical quantitation wavelengths are 210 or 254 nm; detection wavelength can be individually customized to optimize sensitivity. In addition to UV detection, mass spectrometry detection is recommended if available in order to confirm the identity of the HPLC-UV peak of interest.
Dilutions of aqueous test solutions are performed if HPLC-UV peak is beyond the linear portion of the standard calibration curve. Typical dilutions include 100 ul/900 ul (×10) or 500 ul/500 ul (2×), as required.
HPLC grade solvents are employed.

Data set [2] in a line: Solution stability assay (pH 1.0 and pH 7.4, 37° C.). The class given is physicochemical. As to conditions: conversion of the prodrug to compound 1, 37° C., read-out: Aq. Stability half-life (pH 1/7.4) Hrs (converted). Here is the method: Acetonitrile Stock Solution: Prepare an Acetonitrile Stock Solution of the prodrug by dissolving 1.5-2.0 mg of accurately weighted compound in 5.0 mL of acetonitrile in 5 mL volumetric flask.
pH 7.4 Buffer Working Solution: Prepare a pH 7.4 Buffer working Solution of drug by adding 1.5 mL of the Acetonitrile Stock Solution to 3.5 mL of stability buffer in a 20 mL scintillation vial, mix very well. Using a 3 mL syringe withdraw ˜3 mL of solution and filter using the Gelman 0.45 μm syringe filter into a clean 1.5 mL LC vial. This filtered solution will be used to evaluate the prodrug degradation throughout the course of the study. Target concentration: 90-120 μg/mL (70% Aqueous: 30% Acetonitrile)
pH 1.0 Acidic Working Solution: Prepare a pH1.0 Working Solution of drug by adding 1.5 mL of the Acetonitrile Stock Solution to 3.5 mL of stability buffer in a 20 mL scintillation vial, mix very well. Using a 3 mL syringe withdraw ˜3 mL of solution and filter using the Gelman 0.45 μm syringe filter into a clean 1.5 mL LC vial. This filtered solution will be used to evaluate the prodrug degradation throughout the course of the study. Target concentration: 90-120 μg/mL (70% Aqueous: 30% Acetonitrile)
Following the sample preparation procedure described above a single sample (n=1) is prepared for each pH condition. The samples were then placed in an HPLC autosampler maintained at 37° C. and samples were analyzed over a 24 hr period. Prodrug remaining (%) is reported relative to the initial peak area (t=0 h). In cases where a conversion to parent half-life could be calculated, a t1/2 was generated. Confirmation of the conversion to parent from the prodrug was obtained by LCMS and HPLC analysis of the final timepoint samples.
Typical LC parameters are shown below:
• HPLC System: HP1100 Series, Hewlett Packard., Heated autosampler • Analytical column. Synergi 4u Hydro C18, 4.6 mm×5.0 cm, Phenomenex • Column temperature: 40° C. • Autosampler temp: 37° C. • Flow rate: 1.0 mL/min • Injection Volume: 10 μL • Mobile Phase: A: Acetonitrile • B: 0.1% Phosphoric acid in water • Run Time: 14.0 minutes • Typical LCMS parameters are shown below: • LC-MS System: Surveyor HPLC system, ThermoFinnigan LCQ Deca XP Max (Ion trap) • Analytical column. Synergi 4u Hydro C18, 4.6 mm×5.0 cm, Phenomenex • Column temperature: 40° C. • Autosampler temp: 22° C. • Flow rate: 1.0 mL/min • Injection Volume: 5 […] • Mobile Phase: A: 95% Acetonitrile/5% 20 mM Ammonium Acetate • B: 5% Acetonitrile/95% 20 mM Ammonium Acetate • LCQ Parameters • Sheath Flow Rate: 81.64 • Aux/Sweep Flow Rate: 19.01 • Current (uA): 10.89 • Voltage (kV): 5.00 • Capillary©: 348.10 • Capillary Voltage (V): 30.44

In the case of `CC(C)[C@@H](NC(=O)NCC(C)(C)OC(=O)CN)C(=O)N1CC[C@](O)(c2ccc(Cl)cc2)C(C)(C)C1` [Example 1, 1-(3-((R)-1-((S)-4-(4-chlorophenyl)-4-hydroxy-3,3-dimethylpiperidin-1-yl)-3-methyl-1-oxobutan-2-yl)ureido)-2-methylpropan-2-yl 2-aminoacetate], the solubility thermodynamic in data set [1] (pH 6.5, aqueous buffer) amounted to 1.1 mg/mL (≈ 2150 µM). Also, the half-life in data set [2] (pH 1) was 159 h; in data set [2] (pH 7.4) it was 86 h.
Take `CC(C)[C@@H](NC(=O)NCC(C)(C)O)C(=O)N1CC[C@](OCOC(=O)[C@@H](C)O)(c2ccc(Cl)cc2)C(C)(C)C1` [Example 25]: the solubility thermodynamic in data set [1] (pH 7.4, aqueous buffer) is above 0.32 mg/mL. Further, the half-life in data set [2] (pH 1) was 16.6 h; in data set [2] (pH 7.4) it was 73 h.
As for `CC(O)C(=O)OC(C)(C)CNC(=O)N[C@@H](C(=O)N1CC[C@](O)(c2ccc(Cl)cc2)C(C)(C)C1)C(C)C` (stereo partly drawn) [Example 30], the solubility thermodynamic in data set [1] (pH 6.5, aqueous buffer) is 0.31 mg/mL (≈ 589 µM). Also, the half-life in data set [2] (pH 1) was 33 h; in data set [2] (pH 7.4), above 22 h.
For `CC(C)[C@@H](NC(=O)NCC(C)(C)OC(=O)OCOC(=O)CS(=O)(=O)O)C(=O)N1CC[C@](O)(c2ccc(Cl)cc2)C(C)(C)C1` [Example 34], in that order: above 0.18 mg/mL, 47 h and above 22 h.
Regarding `CC(C)[C@@H](NC(=O)NCC(C)(C)O)C(=O)N1CC[C@](OCOP(=O)(O)O)(c2ccc(Cl)cc2)C(C)(C)C1` [Example 28], the solubility thermodynamic in data set [1] (pH 6.5, aqueous buffer) came to 7.1 mg/mL (≈ 12600 µM). Further, the figures for the half-life in data set [2] (pH 1) and in data set [2] (pH 7.4) were 1.4 h and above 22 h, respectively.
On the same counts, the results for `CCC(O)CC(=O)OCOC(=O)OC(C)(C)CNC(=O)N[C@@H](C(=O)N1CC[C@](O)(c2ccc(Cl)cc2)C(C)(C)C1)C(C)C` (stereo partly drawn) [Example 33] are above 1.6 mg/mL, above 22 h and above 22 h.
Regarding `CC(C)[C@@H](NC(=O)NCC(C)(C)OC(=O)CS(=O)(=O)O)C(=O)N1CC[C@](O)(c2ccc(Cl)cc2)C(C)(C)C1` [Example 21], the solubility thermodynamic in data set [1] (pH 7.4, aqueous buffer) is above 16 mg/mL. Further, the half-life in data set [2] (pH 1) and in data set [2] (pH 7.4) was above 22 h in each case.
In the case of `CC(OP(=O)(O)O)C(=O)OC(C)(C)CNC(=O)N[C@@H](C(=O)N1CC[C@](O)(c2ccc(Cl)cc2)C(C)(C)C1)C(C)C` (stereo partly drawn) [Example 31], the solubility thermodynamic in data set [1] (pH 6.5, aqueous buffer) is above 3.3 mg/mL. The half-life was 61 h in data set [2] (pH 1) and above 22 h in data set [2] (pH 7.4).
Regarding `CC(O)COC(=O)OC(C)(C)CNC(=O)N[C@@H](C(=O)N1CC[C@](O)(c2ccc(Cl)cc2)C(C)(C)C1)C(C)C` (stereo partly drawn) [Example 35], the solubility thermodynamic in data set [1] (pH 6.5, aqueous buffer) was 0.18 mg/mL (≈ 324 µM). The half-life in data set [2] (pH 1) was 100 h; in data set [2] (pH 7.4), 30.3 h.
For the molecule `COC(=O)CCC(=O)OC(C)(C)CNC(=O)N[C@@H](C(=O)N1CC[C@](O)(c2ccc(Cl)cc2)C(C)(C)C1)C(C)C` [Example 18], the solubility thermodynamic in data set [1] (pH 7.4, aqueous buffer) was 0.059 mg/mL (≈ 104 µM). In addition, the half-life in data set [2] (pH 1) and in data set [2] (pH 7.4) was above 22 h in each case.
Take `CC(C)[C@H](N)C(=O)OC(C)(C)CNC(=O)N[C@@H](C(=O)N1CC[C@](O)(c2ccc(Cl)cc2)C(C)(C)C1)C(C)C` [Example 3, (S)-1-(3-((R)-1-((S)-4-(4-chlorophenyl)-4-hydroxy-3,3-dimethylpiperidin-1-yl)-3-methyl-1-oxobutan-2-yl)ureido)-2-methylpropan-2-yl 2-amino-3-methylbutanoate]: the solubility thermodynamic in data set [1] (pH 6.5, aqueous buffer) is above 0.6 mg/mL. Besides, the half-life is 237 h in data set [2] (pH 1) and above 22 h in data set [2] (pH 7.4).
On the same counts, the results for `CC(C)[C@@H](NC(=O)NCC(C)(C)OC(=O)Cc1ccc(OP(=O)(O)O)cc1)C(=O)N1CC[C@](O)(c2ccc(Cl)cc2)C(C)(C)C1` [Example 24] are 1.1 mg/mL (≈ 1650 µM), 77 h and above 22 h.
